The values that follow come from article PMC8344761 (Journal of Enzyme Inhibition and Medicinal Chemistry, 2021).

Where only a bound is given, the exact number is not on record here.

The subject of one data set is Hep3B cells. Description: Sphere formation assay. It counts as cell-based. To be noted: Homo sapiens, 48 h drug treatment, 13 days culture, read-out: % Inhibition of sphere forming Hep3B. Here is the method:
(§1) Sphere forming ability of Hep3B and Huh7 cells were examined after incubation with drugs for 48 h. Briefly, 3 × 10^3 cells which were pre-treated with or without drugs in prEGM media (Lonza, Basel, Switzerland) were seeded on an ultra-low adhering 24 well plate (Corning Incorporated Costar, Corning, NY). Twice a week, 500 µL of used medium was replaced with fresh prEGM media. At 13 days after plating, images of spheres were captured using Celloger Mini (Curiosis Inc., Seoul, South Korea). The number of spheroids over 50 µm in diameter was counted by using Image J software (National Institute of Health, Bethesda, MD).

A further data set deals with Huh7 cells. As to the kind of experiment: Sphere formation assay. It counts as cell-based. The following applies: Homo sapiens, Huh-7, 48 h drug treatment, 13 days culture, read-out: % Inhibition of sphere forming Huh7. The procedure:
as §1

In a further data set the target is B-Raf (V600E) (Homo sapiens, UniProt P15056, V600E). Description: Raf kinase assay (Kinase HotSpot, Reaction Biology Corp.). It counts as biochemical.
Chain of B-Raf (V600E) (P15056 whole entry V600E): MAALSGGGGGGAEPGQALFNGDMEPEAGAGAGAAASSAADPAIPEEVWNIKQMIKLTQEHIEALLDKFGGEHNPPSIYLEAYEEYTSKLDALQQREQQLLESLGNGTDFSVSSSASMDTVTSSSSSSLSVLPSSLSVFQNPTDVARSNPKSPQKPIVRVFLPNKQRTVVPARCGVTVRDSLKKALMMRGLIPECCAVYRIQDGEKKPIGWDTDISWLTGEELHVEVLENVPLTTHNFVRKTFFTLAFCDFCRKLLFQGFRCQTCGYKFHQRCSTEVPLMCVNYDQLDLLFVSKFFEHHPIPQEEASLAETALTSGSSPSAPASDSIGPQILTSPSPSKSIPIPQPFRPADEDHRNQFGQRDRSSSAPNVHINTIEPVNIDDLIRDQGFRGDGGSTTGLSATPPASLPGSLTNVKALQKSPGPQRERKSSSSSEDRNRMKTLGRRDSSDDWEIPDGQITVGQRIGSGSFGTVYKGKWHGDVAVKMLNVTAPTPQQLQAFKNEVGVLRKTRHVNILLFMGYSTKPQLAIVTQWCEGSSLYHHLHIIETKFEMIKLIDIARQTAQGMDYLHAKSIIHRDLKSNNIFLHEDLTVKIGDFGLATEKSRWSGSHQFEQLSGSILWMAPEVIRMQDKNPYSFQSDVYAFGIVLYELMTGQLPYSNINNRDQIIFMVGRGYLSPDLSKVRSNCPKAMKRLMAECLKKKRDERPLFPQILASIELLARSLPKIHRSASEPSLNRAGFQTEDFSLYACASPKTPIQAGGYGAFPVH
Another data set concerns the target B-Raf (Homo sapiens, UniProt P15056). The data set is described as above. It counts as biochemical.
Another data set has as its target C-Raf (Homo sapiens, UniProt P04049). The data set is described as above. It counts as biochemical.
In data set [1] the test system is Huh7 cells xenografted onto CAM. As to the kind of experiment: Huh7-xenografted CAM tumour model. It counts as in vivo, chick. To be noted: 10 µM final concentration on CAM; Huh7 xenograft. The procedure: Cancer cell xenograft onto chick chorioallantoic membrane (CAM), an in vivo tumour model, was used to evaluate anti-tumour efficacy of compounds. Fertilised chicken eggs purchased from Byeolbichon Farm (Gyeongbuk, South Korea) were incubated at 37 °C with 55% relative humidity. On day 9 of egg incubation (embryonic day 9, E9), a small hole was made in the shell over the air sac after the selection of bifurcated vessels. Another hole was made on the broadside using a needle by applying negative pressure from the wider part, creating false air sac. Using a grinding wheel (Dremel, Racine, WI), a small window (1 cm^2) was created in the eggshell above the false air sac. For generation of xenograft CAM tumour model, Huh7 cells (1.5 × 10^6 cells/CAM) were inoculated on the CAM with or without test drugs (10 µM final concentration). On day 13 of egg incubation (E13), tumour tissues attached to CAM were resected from the embryo and harvested. Photographs of tumour as well as blood vessel branches were taken using optical microscope (Olympus Corporation, Tokyo, Japan). Tumour tissues were weighted and the number of vessel branch points within the tumour region was counted.

The test system of another data set is Huh7. Description: Cell proliferation assay (MTT). In kind it is cell-based. The following applies: Homo sapiens, Huh-7, 48 h, mean ± SEM of three independent experiments, read-out: Cancer cell proliferation IC50 Huh7. The procedure: (§2) Hepatocellular carcinoma cell lines (HepG2, Huh7), human pancreatic ductal epithelial cell line (H6c7), and normal human colon cell line (CCD841) were obtained from the American Type Culture Collection (ATCC) (Manassas, VA, USA). Cells were cultured in DMEM/High Glucose media (Hep3B, Huh7, CCD841) or MEM/EBSS media (HepG2) containing 10% FBS, 100 IU/ml of penicillin and 100 µg/ml of streptomycin. H6c7 cells were cultured in keratinocyte serum free media supplemented with epidermal growth factor and bovine pituitary extract. Cells were maintained in 5% CO2 humidified atmosphere at 37 °C.
(§3) Cells were seeded in a 96-well plate and allowed to adhere for 24 h. The cells were serum starved in 1% serum containing medium for 12 h, and then treated with drugs in 10% serum-containing medium. After incubation for 48 h, cell proliferation was measured using MTT assay. Optical density was measured at 540 nm using a Spectrostar Nano microplate reader (BMG LABTECH GmbH, Ortenberg, Germany).

Another data set has as its system HepG2. As to the kind of experiment: Cell proliferation assay (MTT). It counts as cell-based. The following applies: Homo sapiens, 48 h, mean ± SEM of three independent experiments, read-out: Cancer cell proliferation IC50 HepG2. The procedure:
as §2, §3

For a further data set, the system named is Hep3B. Description: Cell proliferation assay (MTT). In kind it is cell-based. To be noted: Homo sapiens, 48 h, mean ± SEM of three independent experiments, read-out: Cancer cell proliferation IC50 Hep3B. The procedure: as §2, §3
Data set [2] can be described thus: Cytotoxicity assay (MTT), normal cells. To be noted: human, mean ± SEM. It counts as cell-based, human. The procedure:
as §2
Cells were seeded in a 96-well plate and allowed to adhere for 24 h. Cells in low serum (1%)-containing medium were treated with drugs for 48 h. In case of H6c7 cells, cells in keratinocyte serum free media were treated with drugs for 48 h. Then, cell viability was measured using MTT assay. Optical density was measured at 540 nm using a Spectrostar Nano microplate reader (BMG LABTECH).

The next data set has as its target T1, VEGFR-2 tyrosine kinase (Homo sapiens, UniProt P35968).
T1 construct: purchased Promega
Description: VEGFR-2 (KDR) kinase assay (ADP-glow). The following applies: fixed concentration 1 µM; read-out: inhibitory activity against VEGFR-2 tyrosine kinase. It counts as biochemical. For orientation: In ADP-Glo the light output rises with the ADP produced.

Setting [3] is: fixed concentration 1 μM, mean of two independent experiments, 1 µM.

Chain of C-Raf (P04049 whole entry): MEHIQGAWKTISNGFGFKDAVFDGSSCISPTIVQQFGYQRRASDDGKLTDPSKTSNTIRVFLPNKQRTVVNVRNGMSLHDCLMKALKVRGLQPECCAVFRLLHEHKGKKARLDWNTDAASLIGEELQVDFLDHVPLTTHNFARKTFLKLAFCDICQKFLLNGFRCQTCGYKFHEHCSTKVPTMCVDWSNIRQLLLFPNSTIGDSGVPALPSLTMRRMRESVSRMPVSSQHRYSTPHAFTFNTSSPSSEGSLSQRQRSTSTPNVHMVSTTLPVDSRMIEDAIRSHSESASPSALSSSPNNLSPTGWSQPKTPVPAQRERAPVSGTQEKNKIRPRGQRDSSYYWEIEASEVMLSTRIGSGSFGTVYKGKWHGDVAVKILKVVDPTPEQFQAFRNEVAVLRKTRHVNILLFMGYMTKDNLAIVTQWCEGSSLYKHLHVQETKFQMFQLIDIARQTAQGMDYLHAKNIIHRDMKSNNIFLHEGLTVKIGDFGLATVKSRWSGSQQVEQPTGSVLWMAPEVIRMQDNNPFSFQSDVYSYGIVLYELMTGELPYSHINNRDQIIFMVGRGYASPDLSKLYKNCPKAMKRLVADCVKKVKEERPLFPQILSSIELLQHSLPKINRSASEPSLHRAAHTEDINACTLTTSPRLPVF
Chain of B-Raf (P15056 whole entry): as the sequence (P15056 whole entry V600E) above, with E600V counted along it
T1 sequence (P35968 20-1356): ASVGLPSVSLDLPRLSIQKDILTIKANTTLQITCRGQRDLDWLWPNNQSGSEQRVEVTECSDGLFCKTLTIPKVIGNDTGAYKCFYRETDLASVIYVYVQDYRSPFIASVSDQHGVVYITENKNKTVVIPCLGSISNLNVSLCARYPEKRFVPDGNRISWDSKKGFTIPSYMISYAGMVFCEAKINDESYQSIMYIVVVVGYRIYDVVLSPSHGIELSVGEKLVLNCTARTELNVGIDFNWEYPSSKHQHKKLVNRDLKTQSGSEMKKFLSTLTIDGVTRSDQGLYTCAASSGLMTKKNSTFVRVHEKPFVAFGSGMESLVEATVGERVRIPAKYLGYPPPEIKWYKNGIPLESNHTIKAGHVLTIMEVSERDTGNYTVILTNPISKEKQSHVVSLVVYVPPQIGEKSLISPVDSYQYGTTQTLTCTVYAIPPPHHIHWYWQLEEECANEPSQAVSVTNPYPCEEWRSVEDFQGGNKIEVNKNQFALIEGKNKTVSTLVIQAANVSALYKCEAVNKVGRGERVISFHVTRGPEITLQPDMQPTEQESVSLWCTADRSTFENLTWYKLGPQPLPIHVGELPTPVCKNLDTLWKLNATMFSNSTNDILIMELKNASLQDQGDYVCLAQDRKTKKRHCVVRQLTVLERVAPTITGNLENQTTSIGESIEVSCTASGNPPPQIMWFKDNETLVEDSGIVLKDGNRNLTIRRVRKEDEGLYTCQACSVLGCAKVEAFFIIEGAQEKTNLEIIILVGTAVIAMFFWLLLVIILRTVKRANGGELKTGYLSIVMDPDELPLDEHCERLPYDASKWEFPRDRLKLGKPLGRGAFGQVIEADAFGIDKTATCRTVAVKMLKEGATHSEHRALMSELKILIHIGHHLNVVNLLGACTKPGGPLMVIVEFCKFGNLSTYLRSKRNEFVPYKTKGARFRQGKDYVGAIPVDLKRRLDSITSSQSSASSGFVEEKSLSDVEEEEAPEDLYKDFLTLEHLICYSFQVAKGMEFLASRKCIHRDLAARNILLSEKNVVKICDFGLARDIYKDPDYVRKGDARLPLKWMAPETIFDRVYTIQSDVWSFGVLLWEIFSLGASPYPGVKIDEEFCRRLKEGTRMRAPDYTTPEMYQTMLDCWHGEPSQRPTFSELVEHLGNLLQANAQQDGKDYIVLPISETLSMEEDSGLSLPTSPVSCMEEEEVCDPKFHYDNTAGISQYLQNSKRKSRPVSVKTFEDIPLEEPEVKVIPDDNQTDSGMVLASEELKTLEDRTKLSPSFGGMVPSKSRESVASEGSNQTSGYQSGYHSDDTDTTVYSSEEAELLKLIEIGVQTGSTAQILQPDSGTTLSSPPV
Description for VEGFR-2 tyrosine kinase: The VEGFR-2 (KDR) kinase assay was performed with a KDR (Promega, WI, USA) kinase enzyme system using the ADP-glow kinase assay kit (Promega) in accordance with the manufacturer's instructions. […] The reaction was carried out at 25 °C for 1 h in a total volume of 25 µl. Subsequently, 25 µl of ADP-Glow reagent was added to the mixture, and then incubated for 40 min at 25 °C. After the addition of 50 µl of ADP detection reagents for 30 min at 25 °C, luminescence was measured using a Fluostar Omega microplate reader (BMG LABTECH GmbH, Ortenberg, Germany).

The term melting point denotes the temperature of the solid-liquid transition. As usually defined, the CC50 is the concentration giving 50% cytotoxicity. Higher therefore signals lower toxicity to the cells. For `CNC(=O)c1cc(Oc2c(C)nc(NC(=O)Nc3ccc(Cl)c(C(F)(F)F)c3)c(C)c2C)ccn1` [Compound 4, 4-((6–(3-(4-Chloro-3-(trifluoromethyl)phenyl)ureido)-2,4,5-trimethylpyridin-3-yl)oxy)-N-methylpicolinamide], the melting point came to 265 °C. In the data set with Hep3B cells (1 μM), the inhibition at 1 µM came to 30.8%. For the same compound, the inhibition at 10 µM in the data set with Hep3B cells (10 μM) is 50.6%. Further, in the data set on Huh7 cells (1 μM), the inhibition at 1 µM stood at 31.6%. In the data set with Huh7 cells (10 μM), the inhibition at 10 µM was 50.5%. The inhibition at 1 µM on B-Raf (V600E) (fixed concentration 1 μM, mean of two independent experiments, B-Raf (V599E)) amounted to 56.1%. Besides, at B-Raf (V600E) (mean ± SD of two independent experiments, read-out: In vitro Raf kinase inhibition IC50 B-Raf(V600E)), the IC50 was found to be 0.65 ± 0.0023 µM. Further, the inhibition at 1 µM against B-Raf (fixed concentration 1 μM, mean of two independent experiments) was 11.6%. In addition, the “Inhibition (%) B-Raf” value at B-Raf (setting [3]) is 12%. Also, at B-Raf (mean ± SD of two independent experiments, read-out: In vitro Raf kinase inhibition IC50 B-Raf), the IC50 is 5.86 µM. The “Inhibition (%) C-Raf” value on C-Raf (setting [3]) is reported as 84%. The inhibition at 1 µM on C-Raf (fixed concentration 1 μM, mean of two independent experiments, read-out: Inhibition (%) C-Raf) was found to be 84.3%. Further, the IC50 on C-Raf (mean ± SD of two independent experiments, read-out: In vitro Raf kinase inhibition IC50 C-Raf) came out at 0.08 ± 0.0081 µM. The “inhibitory effect on tumour weight” value in [1] is “weaker than that of sorafenib”. In addition, in the data set on Huh7, the IC50 came out at 5.29 ± 0.11 µM. For the same compound, the IC50 in the data set on HepG2 stood at 6.98 ± 0.08 µM. In addition, in the data set with Hep3B, the IC50 was 6.23 ± 0.07 µM. In addition, the half-maximal cytotoxic concentration (CC50) at 48 h in [2] (CCD841 cells (normal colon epithelial cell line)) is above 10 µM. In data set [2] (H6c7 cells (normal pancreatic ductal epithelial cell line)), the 50% cytotoxic concentration (CC50) at 48 h was above 10 µM. In addition, the inhibition at 1 µM on VEGFR-2 tyrosine kinase is around 32%.
